Measurements: patent publication US11332455B2, “α,β-unsaturated amide compound” (KYOWA KIRIN CO., LTD., priority 2015, dated 2022)

Columns and labels:
Assay in all cases: Cell growth inhibitory effect, cell counting kit 8, 6 days
Format in all cases: cell-based
[1] = test system: NCI-H226 cells, a human mesothelioma cell line; conditions: 144 h, 6 days incubation
How it was run: (§1)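 Cells grown in RPMI1640 with 10% FBS, plated at 500 cells/well (NCI-H226, NCI-H322) and incubated one day before serially diluted compound was added (0.1% DMSO final). After 6 days at 37 °C, 5% CO2, CCK-8 colour developed 2–3 h and A450 read; GI50 derived from growth inhibition rate.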

[2] = test system: NCI-H322 cells, a human lung cancer cell line; conditions: 144 h, 6 days incubation
How it was run: as §1

[3] = test system: HuH28, a human liver cancer cell line; conditions: 144 h, HuH28 cells, 6 days incubation
How it was run: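 HuH28 human liver cancer cells (JCRB0426) were maintained below 80% density in RPMI1640 with 10% FBS and grown in 96-well flat-bottom plates. Test compound was serially diluted to 5 times final concentration and added with DMSO at 0.1%, then incubated for 6 days at 37° C in 5% CO2. Viable cells were counted with cell counting kit 8 at dosing and on day 6, using a 2 or 3 hour color reaction and absorbance at 450 nm. GI50 was derived from growth inhibition rates.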

[4] = group 100 nmol/L to 1 μmol/L (upper bound given in μmol/L)

Row | SMILES | GI50 ([1]; group less than 100 nmol/L) [µM] | GI50 [2] [µM] | GI50 [3] [µM] | GI50 [1, 4] [µM]
1 | C=CC(=O)N[C@H]1CC[C@@H](Oc2ccc(C(F)(F)F)c(F)c2)c2nc(Cl)ccc21 (relative stereo) [Compound 187, cis-N-[2-Chloro-8-{3-fluoro-4-(trifluoromethyl)phenoxy}-5,6,7,8-tetrahydroquinolin-5-yl]acrylamide] | < 0.1 | < 1 | < 3 | –
2 | C=CC(=O)NCc1ccc(Oc2ccc(C(F)(F)F)nc2)c2ncc(C)cc12 [Compound 200, N-{(3-Methyl-8-[{6-(trifluoromethyl)pyridin-3-yl}oxy]quinolin-5-yl)methyl}acrylamide] | < 0.1 | < 1 | < 3 | –
3 | C=CC(=O)NC1COc2c(Oc3ccc(C(F)(F)F)cc3)cccc2C1=O (racemic) [Compound 40, N-[4-Oxo-8-{4-(tolyloromethyl)phenoxy}chroman-3-yl]acrylamide] | < 0.1 | < 1 | < 3 | –
4 | C=CC(=O)NC1CCOc2c1ccc(Oc1ccc(C(F)(F)F)cc1)c2C (stereo not drawn) [Compound 28, N-[8-Methyl-7-{4-(trifluoromethyl)phenoxy}chroman-4-yl]acrylamide] | < 0.1 | < 1 | < 3 | –
5 | C=CC(=O)N[C@H]1CC[C@@H](Oc2cccc(Cl)c2)c2ncccc21 (relative stereo) [Compound 68, cis-N-{8-(3-Chlorophenoxy)-5,6,7,8-tetrahydroquinolin-5-yl}acrylamide] | < 0.1 | < 1 | < 3 | –
6 | C=CC(=O)N[C@H]1CC[C@@H](Oc2ccc(C(F)(F)F)cn2)c2nc(Cl)ccc21 (relative stereo) [Compound 189, cis-N-(2-Chloro-8-[{5-(trifluoromethyl)pyridin-2-yl}oxy]-5,6,7,8-tetrahydroquinolin-5-yl)acrylamide] | < 0.1 | < 1 | < 3 | –
7 | Nc1cncc(OCC2CCC(F)(F)CC2)c1 [Compound 192, 5-[(4,4-Difluorocyclohexyl)methoxy]pyridin-3-amine] | – | < 1 | < 3 | 0.1 to 1
8 | C=CC(=O)NC1CCOc2c1ccc(Oc1ccc(F)c(F)c1)c2OC (stereo not drawn) [Compound 164, N-{7-(3,4-Difluorophenoxy)-8-methoxychroman-4-yl}acrylamide] | – | < 1 | < 3 | 0.1 to 1
9 | C=CC(=O)N[C@H]1CC[C@@H](Oc2ccc(C(F)(F)F)cc2)c2nc(OC)ccc21 (relative stereo) [Compound 179, cis-N-[2-Methoxy-8-{4-(trifluoromethyl)phenoxy}-5,6,7,8-tetrahydroquinolin-5-yl]acrylamide] | < 0.1 | < 1 | < 3 | –
10 | C=CC(=O)NCc1ccc(Oc2ccc(C(F)(F)F)cc2)c2ccncc12 [Compound 225, N-([5-{4-(Trifluoromethyl)phenoxy}isoquinolin-8-yl]methyl)acrylamide] | < 0.1 | < 1 | < 3 | –
11 | C=CC(=O)NCc1ccc(Oc2ccc(C(F)(F)F)cc2)c2nc(C)ccc12 [Compound 212, N-([2-Methyl-8-{4-(trifluoromethyl)phenoxy}quinolin-5-yl]methyl)acrylamide] | < 0.1 | < 1 | < 3 | –
12 | C=CC(=O)NCc1ccc(Oc2ccc(C(F)(F)F)nc2)c2ncccc12 [Compound 143, N-{(8-[{6-(Trifluoromethyl)pyridin-3-yl}oxy]quinolin-5-yl)methyl}acrylamide] | < 0.1 | < 1 | < 3 | –
13 | C=CC(=O)N[C@H]1CC[C@@H](Oc2ccc(C(F)(F)F)cc2)c2nc(C3CC3)ccc21 (relative stereo) [Compound 185, cis-N-[2-Cyclopropyl-8-{4-(trifluoromethyl)phenoxy}-5,6,7,8-tetrahydroquinolin-5-yl]acrylamide] | < 0.1 | < 1 | < 3 | –
14 | C=CC(=O)NC1CCOc2c1ccc(Oc1ccc(C(F)(F)F)cc1)c2OC (racemic) [Compound 33, N-[8-Methoxy-7-{4-(trifluoromethyl)phenoxy}chroman-4-yl]acrylamide] | < 0.1 | < 1 | < 3 | –
15 | C=CC(=O)Nc1ccc(Oc2cccc(Cl)c2)c2ncccc12 [Compound 114, N-{8-(3-Chlorophenoxy)quinolin-5-yl}acrylamide] | < 0.1 | < 1 | < 3 | –
